Several values for one entry are separate records, joined by “and”; a condition that tells them apart may be missing. Equal values may be shown once. Inconclusive results and toxic doses are left out. How the source made its calls: active means survival T/C of 150% or more; inactive means T/C below 125% in these data.
Tested on: P388 leukemia ip, CD2F1 mice, survival T/C
Assay: NCI In Vivo Anticancer Drug Screen. Data for tumor model P388 Leukemia (intraperitoneal) in CD2F1 (CDF1) mice
Settings: endpoint: median survival time, higher = longer survival
Outline: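 Mice carrying the transplanted tumor received test compound or vehicle. Survival was recorded in each group, and the value is the treated-group measurement divided by that of the vehicle-treated control group.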

[1] = dose: 50.0 mg/kg/injection, schedule: Q01DX009 (ip), vehicle: saline with Tween-80
[2] = dose: 60.0 mg/kg/injection, schedule: Q01DX005 (ip), vehicle: saline with Tween-80
[3] = dose: 120.0 mg/kg/injection, schedule: Q01DX005 (ip), vehicle: saline with Tween-80
[4] = dose: 100.0 mg/kg/injection, schedule: Q01DX001 (ip), vehicle: saline with Tween-80
[5] = dose: 25.0 mg/kg/injection, schedule: Q01DX009 (ip), vehicle: Klucel (hydroxypropylcellulose) (HPC)
[6] = dose: 50.0 mg/kg/injection, schedule: Q01DX009 (ip), vehicle: Klucel (hydroxypropylcellulose) (HPC)
[7] = dose: 100.0 mg/kg/injection, schedule: Q01DX009 (ip), vehicle: Klucel (hydroxypropylcellulose) (HPC)
[8] = dose: 200.0 mg/kg/injection, schedule: Q01DX009 (ip), vehicle: Klucel (hydroxypropylcellulose) (HPC)
[9] = dose: 240.0 mg/kg/injection, schedule: Q01DX005 (ip), vehicle: saline with Tween-80
[10] = dose: 100.0 mg/kg/injection, schedule: Q04DX003 (ip), vehicle: saline
[11] = dose: 400.0 mg/kg/injection, schedule: Q04DX003 (ip), vehicle: saline
[12] = dose: 100.0 mg/kg/injection, schedule: Q04DX003 (ip), vehicle: saline with Tween-80
[13] = dose: 200.0 mg/kg/injection, schedule: Q04DX003 (ip), vehicle: saline with Tween-80

Measured: T/C

C=CCOc1ccccc1N/N=C(\Cl)C(=O)OCC
inactive: dose: 12.5 mg/kg/injection, schedule: Q01DX009 (ip), vehicle: saline with Tween-80 124 % of control | dose: 25.0 mg/kg/injection, schedule: Q01DX009 (ip), vehicle: saline with Tween-80 120 % of control | [1] 121 % of control

O=C1C2C3C=CC(C3)C2C(=O)C2(CO)OC12 (stereo not drawn)
inactive: dose: 62.5 mg/kg/injection, schedule: Q04DX002 (ip), vehicle: saline 97 % of control | dose: 125.0 mg/kg/injection, schedule: Q04DX002 (ip), vehicle: saline 95 % of control | dose: 250.0 mg/kg/injection, schedule: Q04DX002 (ip), vehicle: saline 97 % of control

O=c1c2ccccc2nnn1O
inactive: dose: 100.0 mg/kg/injection, schedule: Q04DX003 (ip), vehicle: Klucel (hydroxypropylcellulose) (HPC) 108 % of control | dose: 200.0 mg/kg/injection, schedule: Q04DX003 (ip), vehicle: Klucel (hydroxypropylcellulose) (HPC) 108 % of control

COc1cc(C(CC(C)=O)c2cc3c(cc2OC(C)=O)OCO3)cc(OC)c1OC (stereo not drawn)
inactive: dose: 30.0 mg/kg/injection, schedule: Q01DX005 (ip), vehicle: saline with Tween-80 95 % of control | [2] 100 % of control and 93 % of control | [3] 120 % of control

Cc1ccc(C)c(C2=C/C(=C/c3ccc(N(CCC#N)CCC#N)cc3)C(=O)O2)c1
inactive: [4] 97 % of control | dose: 200.0 mg/kg/injection, schedule: Q01DX001 (ip), vehicle: saline with Tween-80 92 % of control | dose: 400.0 mg/kg/injection, schedule: Q01DX001 (ip), vehicle: saline with Tween-80 101 % of control

CC1C(c2ccccc2)OCCN1C(=S)NC(=O)c1ccccc1 (stereo not drawn)
inactive: [5] 102 % of control | [6] 101 % of control | [7] 100 % of control | [8] 111 % of control

CN(C)c1c2c(oc(=O)c1Cl)-c1ccccc1SCC2
inactive: [2] 101 % of control | [3] 100 % of control | [9] 91 % of control

COc1ccccc1N=Nc1c(-c2cccs2)nn(C(=S)SC)c1C(F)(F)F
inactive: [2] 92 % of control | [3] 97 % of control | [9] 97 % of control

O=C1NC(=O)C(=O)N1
inactive: [10] 100 % of control | [11] 100 % of control

CCc1nc(-c2ccccc2)c(-c2ccccc2)[nH]1
inactive: [12] 90 % of control | [13] 90 % of control | dose: 400.0 mg/kg/injection, schedule: Q04DX003 (ip), vehicle: saline with Tween-80 95 % of control

Cc1cn(CCCn2cnc3c(N)ncnc32)c(=O)[nH]c1=O
inactive: [2] 95 % of control | [3] 98 % of control | [9] 107 % of control

CCOc1ccc2ccc3cccnc3c2n1
inactive: [2] 96 % of control | [3] 94 % of control | [9] 99 % of control

O=[N+]([O-])c1ccc(-c2noc(-c3cccs3)n2)cc1
inactive: dose: 60.0 mg/kg/injection, schedule: Q01DX005 (ip), vehicle: Klucel (hydroxypropylcellulose) (HPC) 95 % of control | dose: 120.0 mg/kg/injection, schedule: Q01DX005 (ip), vehicle: Klucel (hydroxypropylcellulose) (HPC) 101 % of control | dose: 240.0 mg/kg/injection, schedule: Q01DX005 (ip), vehicle: Klucel (hydroxypropylcellulose) (HPC) 97 % of control

OCC1CCCCC1(O)c1ccccc1 (stereo not drawn)
inactive: dose: 50.0 mg/kg/injection, schedule: Q01DX001 (ip), vehicle: Klucel (hydroxypropylcellulose) (HPC) 90 % of control | dose: 100.0 mg/kg/injection, schedule: Q01DX001 (ip), vehicle: Klucel (hydroxypropylcellulose) (HPC) 90 % of control | dose: 200.0 mg/kg/injection, schedule: Q01DX001 (ip), vehicle: Klucel (hydroxypropylcellulose) (HPC) 90 % of control

CCCCOCC(C)O (stereo not drawn)
inactive: [10] 109 % of control | dose: 200.0 mg/kg/injection, schedule: Q04DX003 (ip), vehicle: saline 100 % of control | [11] 90 % of control

O=C1COC(c2ccccc2O)=NN1Cc1ccccc1
inactive: [1] 94 % of control | dose: 100.0 mg/kg/injection, schedule: Q01DX009 (ip), vehicle: saline with Tween-80 92 % of control | dose: 200.0 mg/kg/injection, schedule: Q01DX009 (ip), vehicle: saline with Tween-80 99 % of control

C=CN=NNc1ccccc1
inactive: dose: 100.0 mg/kg/injection, schedule: Q04DX003 (ip), vehicle: saline + Tween-80 + alcohol 105 % of control | dose: 200.0 mg/kg/injection, schedule: Q04DX003 (ip), vehicle: saline + Tween-80 + alcohol 106 % of control | dose: 400.0 mg/kg/injection, schedule: Q04DX003 (ip), vehicle: saline + Tween-80 + alcohol 110 % of control

C=C1C(OC(=O)c2ccccc2)C2[C@@H](OC(=O)CC)[C@@H](C)C[C@]2(O)C(=O)[C@@H](C)/C=C/C(C)(C)C(=O)C(O)[C@H]1OC(=O)C(C)C (stereo partly drawn)
inactive: [2] 102 % of control | [3] 91 % of control

Cc1cnc2c(N)nn(-c3ccccc3)c2n1
inactive: [12] 95 % of control | [13] 105 % of control

CN1CCc2c1cc(-c1ccncc1)c1c2N(C)CC1
inactive: dose: 50.0 mg/kg/injection, schedule: Q01DX005 (ip), vehicle: Klucel (hydroxypropylcellulose) (HPC) 106 % of control | dose: 100.0 mg/kg/injection, schedule: Q01DX005 (ip), vehicle: Klucel (hydroxypropylcellulose) (HPC) 107 % of control | dose: 200.0 mg/kg/injection, schedule: Q01DX005 (ip), vehicle: Klucel (hydroxypropylcellulose) (HPC) 107 % of control

NC(N)=NC(N)=Nc1cc2c3ccccc3ccc2c2ccccc12
inactive: dose: 25.0 mg/kg/injection, schedule: Q01DX001 (ip), vehicle: saline with Tween-80 100 % of control | dose: 50.0 mg/kg/injection, schedule: Q01DX001 (ip), vehicle: saline with Tween-80 98 % of control | [4] 92 % of control

O=[N+]([O-])c1cc2c(cc1Cl)C1C(C3C2C2(Cl)C(Cl)=C(Cl)C3(Cl)C2(Cl)Cl)C2(Cl)C(Cl)=C(Cl)C1(Cl)C2(Cl)Cl (stereo not drawn)
inactive: dose: 50.0 mg/kg/injection, schedule: Q01DX009 (ip), vehicle: saline 101 % of control | dose: 100.0 mg/kg/injection, schedule: Q01DX009 (ip), vehicle: saline 109 % of control | dose: 200.0 mg/kg/injection, schedule: Q01DX009 (ip), vehicle: saline 106 % of control

NC1=C(O)C(=O)C(c2c[nH]c3ccc(OCc4ccccc4)cc23)O1 (stereo not drawn)
inactive: dose: 7.5 mg/kg/injection, schedule: Q01DX005 (ip), vehicle: Klucel (hydroxypropylcellulose) (HPC) 93 % of control | dose: 15.0 mg/kg/injection, schedule: Q01DX005 (ip), vehicle: Klucel (hydroxypropylcellulose) (HPC) 101 % of control | dose: 30.0 mg/kg/injection, schedule: Q01DX005 (ip), vehicle: Klucel (hydroxypropylcellulose) (HPC) 102 % of control and 96 % of control

S=C(Nc1ccc(Cl)c(Cl)c1)N1c2ccccc2-n2cccc2C1c1cccnc1 (stereo not drawn)
inactive: [5] 115 % of control | [6] 113 % of control | [7] 113 % of control | [8] 121 % of control

CCCCCCCCCCCCCCCCCCSC1=CC(=O)C(Cl)=C(Cl)C1=O
inactive: dose: 10.0 mg/kg/injection, schedule: Q01DX009 (ip), vehicle: Klucel (hydroxypropylcellulose) (HPC) 97 % of control | dose: 20.0 mg/kg/injection, schedule: Q01DX009 (ip), vehicle: Klucel (hydroxypropylcellulose) (HPC) 90 % of control

O=C1c2cccc3c([N+](=O)[O-])ccc(c23)C(=O)N1CCCN1CCOCC1
inactive: dose: 50.0 mg/kg/injection, schedule: Q01DX005 (ip), vehicle: saline with Tween-80 114 % of control | dose: 100.0 mg/kg/injection, schedule: Q01DX005 (ip), vehicle: saline with Tween-80 116 % of control

COC(=O)C(NC(=O)C(NC(=O)c1c2nc3c(C(=O)NC(C(=O)NC(C(=O)OC)C(C)C)C(C)OC(C)=O)ccc(C)c3oc-2c(C)c(=O)c1N)C(C)OC(C)=O)C(C)C (stereo not drawn)
inactive: dose: 0.05 mg/kg/injection, schedule: Q01DX009 (ip), vehicle: water 107 % of control | dose: 0.1 mg/kg/injection, schedule: Q01DX009 (ip), vehicle: water 107 % of control | dose: 0.2 mg/kg/injection, schedule: Q01DX009 (ip), vehicle: water 100 % of control | dose: 0.4 mg/kg/injection, schedule: Q01DX009 (ip), vehicle: water 97 % of control | dose: 0.8 mg/kg/injection, schedule: Q01DX009 (ip), vehicle: water 100 % of control | dose: 1.6 mg/kg/injection, schedule: Q01DX009 (ip), vehicle: water 100 % of control and 88 % of control | dose: 3.2 mg/kg/injection, schedule: Q01DX009 (ip), vehicle: water 97 % of control | dose: 6.4 mg/kg/injection, schedule: Q01DX009 (ip), vehicle: water 97 % of control | dose: 12.8 mg/kg/injection, schedule: Q01DX009 (ip), vehicle: water 92 % of control

— PubChem BioAssay AID330 (DTP/NCI, 2004)
